Publication PMC5790467, “Enhanced anti-tumor efficacy and mechanisms associated with docetaxel-piperine combination- in vitro and in vivo investigation using a taxane-resistant prostate cancer model” (Oncotarget, 2017)
Where two headings read alike, the source gives them in different places.

Columns and labels:
MCF-7/DOX = tested on: MCF-7/DOX; design: method as in PMID 21802927; conditions: PIP at 50 μM; cited from earlier work
PC3-TxR cells = test: Microarray gene expression profiling of PC3-TxR cells treated with PIP; type: cell-based, human; conditions: 6 h
Protocol: The microarray technique was utilized to identify the potential mechanisms related to the chemosensitizing effect of PIP in PC3-TxR cells by determining the gene expression profile at the whole genome level. PC3-TxR cells were seeded at a density of 1 × 10^5 cells/ml in DMEM supplemented with 10% fetal bovine serum and cultured for 24 h. The cells were then treated with PIP at concentrations of 25 and 50 μg/ml (as low and high concentrations respectively) for 6 h. PIP was initially dissolved in DMSO and diluted to the target concentrations using DMEM. DMSO (0.5%) was used as the negative control (n = 2). Total RNA was extracted using RNeasy Mini Kit (QIAGEN, Valencia, CA, USA) according to the manufacturer’s protocol. The RNA was measured and the quality was checked using the RNA 6000 LabChip and Agilent 2100 BioAnalyzer. Only the high-quality RNA samples (e.g. RNA integrity number greater than 9.0) were used for subsequent microarray procedure performed at the Functional Genomics Core, Beckman Research Institute, City of Hope Comprehensive Cancer Center. Affymetrix Human Genome U133 Plus 2.0 arrays (Santa Clara, CA, USA) containing 54,675 probe sets detecting over 47,000 transcripts were used. The RNA samples were randomized and blinded prior to the microarray processing/analysis. The cRNA synthesis and labeling were carried out following the Affymetrix GeneChip 3′ IVT Express standard preparation protocol using […] of total RNA from each sample, along with polyA spike-in controls. The cRNA samples were converted to double-stranded cDNA. After second-strand synthesis, the cDNA was purified with the GeneChip sample cleanup module (Affymetrix, Santa Clara, CA). Biotinylated cRNAs were then synthesized by in vitro transcription. For each sample, […] of biotinylated cRNA along with hybridization spiked controls (bioB, bioC, bioD, and cre) was hybridized with Affymetrix Human Genome U133 Plus 2.0 array for 16 h at 45°C. Following hybridization, arrays were washed, stained, and then scanned with an Affymetrix GeneChipH 3000 7G scanner.
Statistical testing and additional analysis of the microarray data were conducted using Partek “Gene Expression” Workflow, i.e., Filtering, PCA, Sample Histogram, QC metrics, Gene Clustering, and ANOVA Analysis). The probe-set level expression data were summarized with Robust Multichip Average (RMA) by taking all 8 microarrays together. PCA and hierarchical clustering analysis (HCA) combined with heatmap was used to assess the quality of the microarray data by evaluating the reproducibility and variation of three replicates within each group and the differences among the three groups. The log2-transformed expression intensities of 54,675 probe sets from the 8 microarrays were used to calculate the Pearson Correlation Coefficient and Ward’s Minimum Variance method was used to calculate the distance between samples.
The differentially expressed genes (DEGs) between the treatment and control group were identified using cutoffs of t-test p value < 0.05 and fold change >2. The DEGs and probe sets were selected separately by comparing each treatment group with the control group. The dose dependent DEGs were than selected by overlapping the two DEGs sets. A functional annotation of these genes was carried out, using a gene ontology-based analysis of biological properties.

[1] = tested on: CYPs (hepatic metabolism of DTX); test: In vitro inhibition of hepatic metabolism of DTX in mouse liver microsomes; type: in vitro ADME, ICR mice; conditions: ICR, pH 7.4, probe DTX (docetaxel) 2 μM
Protocol: Livers of ICR-NOD/SCID mice administrated with vehicle control or PIP were collected for the ex vivo metabolism study. In vitro metabolic reactions were performed in blank ICR mice liver. Hepatic microsomes were prepared according to the method of Hill. The system of enzymatic incubation was conducted based on the condition reported by Mooiman et al. with minor modification. […] Drug mixture was pre-incubated with mice liver microsome at 0.5 mg/ml in 50 mM phosphate buffer (pH7.4) containing 2.6 mM of NADP^+, 7.1 mM of glucose-6-phosphate and 6.5 mM of magnesium chloride for 15 min. The reaction was initiated by the addition of glucose-6-phosphate dehydrogenase at 0.8 U/ml. After incubation for 60 min, the reaction was terminated by the addition of 200 µl of ice-cold acetonitrile/methanol (50:50, v/v) containing glibenclamide at 100 ng/ml. The mixture was centrifuged at 13000 rpm for 10 min and the supernatant was injected into LC/MS/MS for analysis.

P-gp = P-gp (Homo sapiens, UniProt P08183); test: Intracellular DTX accumulation in PC3-TxR cells; type: cell-based; conditions: 100 nM DTX; PIP at 50 μg/ml; 120 min; positive control 10 μg/ml of PSC833
Protocol: The PC3 and PC3-TxR cells were seeded in 6-well plate with density of 1×10^4 cells/ml and grew for 24 hours. […] The cells were then lysed and the protein level was measured using a BCA approach (Bio Rad Laboratory, Hercules, CA, USA). […] Briefly, to 0.1 ml of cell lysate, 0.3 ml of tert-butyl methyl ether was added and vortexed for 3 min. The upper organic layer was separated and evaporated to dryness. The residue was reconstituted using 0.1 ml of 80% acetonitrile and 10 μl was injected to an HPLC-MS/MS system for quantification. Paclitaxel was used as internal standard. The intracellular concentration was normalized per protein concentration. […] PSC833 (10 μg/ml) was used as positive control. […] The amount of DTX was compared among these treatment groups.

[2] = i.g.; female Fischer rats; cited from earlier work
Caco-2 monolayer model = tested on: Caco-2 monolayer model; design: method as in PMID 12130727; conditions: cited from earlier work
A-549/DDP = tested on: A-549/DDP; design: method as in PMID 21802927; conditions: PIP at 50 μM; cited from earlier work

Sequence of P-gp (P08183 whole entry): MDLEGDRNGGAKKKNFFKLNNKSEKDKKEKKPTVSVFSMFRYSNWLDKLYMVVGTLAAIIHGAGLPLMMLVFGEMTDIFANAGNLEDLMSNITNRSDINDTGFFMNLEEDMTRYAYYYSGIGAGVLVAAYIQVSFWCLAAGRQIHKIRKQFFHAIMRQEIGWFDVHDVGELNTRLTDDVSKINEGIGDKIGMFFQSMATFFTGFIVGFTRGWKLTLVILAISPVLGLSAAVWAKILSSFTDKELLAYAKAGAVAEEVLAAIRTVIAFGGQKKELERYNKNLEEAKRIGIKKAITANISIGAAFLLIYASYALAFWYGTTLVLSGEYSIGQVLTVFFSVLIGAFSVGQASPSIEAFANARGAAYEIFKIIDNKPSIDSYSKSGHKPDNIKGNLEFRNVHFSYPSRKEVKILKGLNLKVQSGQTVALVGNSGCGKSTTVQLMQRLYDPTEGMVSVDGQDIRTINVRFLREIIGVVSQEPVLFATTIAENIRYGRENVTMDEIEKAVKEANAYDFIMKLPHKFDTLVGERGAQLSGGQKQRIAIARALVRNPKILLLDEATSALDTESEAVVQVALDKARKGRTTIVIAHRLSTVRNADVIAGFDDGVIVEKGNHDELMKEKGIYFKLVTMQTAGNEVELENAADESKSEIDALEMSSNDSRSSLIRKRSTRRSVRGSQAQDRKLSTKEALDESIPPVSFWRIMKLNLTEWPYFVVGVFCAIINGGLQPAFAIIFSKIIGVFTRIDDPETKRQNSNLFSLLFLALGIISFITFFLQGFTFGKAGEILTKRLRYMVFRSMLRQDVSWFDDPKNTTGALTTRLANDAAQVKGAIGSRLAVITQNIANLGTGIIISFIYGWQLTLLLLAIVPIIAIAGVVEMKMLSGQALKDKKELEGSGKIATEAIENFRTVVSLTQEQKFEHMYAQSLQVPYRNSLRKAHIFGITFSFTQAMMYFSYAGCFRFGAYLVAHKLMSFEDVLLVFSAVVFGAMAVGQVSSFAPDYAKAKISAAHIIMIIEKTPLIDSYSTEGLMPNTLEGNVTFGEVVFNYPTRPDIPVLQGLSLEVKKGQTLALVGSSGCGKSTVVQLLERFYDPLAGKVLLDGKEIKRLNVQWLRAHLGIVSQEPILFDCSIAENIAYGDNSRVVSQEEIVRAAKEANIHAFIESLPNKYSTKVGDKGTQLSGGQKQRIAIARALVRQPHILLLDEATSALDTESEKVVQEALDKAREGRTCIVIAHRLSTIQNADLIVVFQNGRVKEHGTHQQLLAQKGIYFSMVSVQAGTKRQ

O=C(/C=C/C=C/c1ccc2c(c1)OCO2)N1CCCCC1 [PIP, 1-piperoyl piperidine]
enhancement of the sensitivity to doxorubicin (MCF-7/DOX): 32 folds
expression change of Angiopoietin-like 4 (PC3-TxR cells; High dose PIP): 1.6
expression change of CYP1B1 (PC3-TxR cells; High dose PIP): −4.3
expression change of Fatty acid binding protein 4, adipocyte (PC3-TxR cells; High dose PIP): 1.9
expression change of Keratin associated protein 2–3 (PC3-TxR cells; High dose PIP): −4.7
expression change of Keratin associated protein 3–1 (PC3-TxR cells; High dose PIP): −2.7
expression change of Metastasis associated lung adenocarcinoma transcript 1 (non-protein coding) (PC3-TxR cells; High dose PIP): 4.1
expression change of O-linked N-acetylglucosamine (GlcNAc) transferase (PC3-TxR cells; High dose PIP): 2.3
expression change of Sodium channel, non-voltage-gated 1, gamma subunit (PC3-TxR cells; High dose PIP): 1.5
expression change of TCDD-inducible poly(ADP-ribose) polymerase (PC3-TxR cells; High dose PIP): −2.6
expression change of Thrombospondin 1 (PC3-TxR cells; High dose PIP): −2.4
expression change of Angiopoietin-like 4 (PC3-TxR cells; Low dose PIP): 2.3
expression change of CYP1B1 (PC3-TxR cells; Low dose PIP): −5.1
expression change of Fatty acid binding protein 4, adipocyte (PC3-TxR cells; Low dose PIP): 2.5
expression change of Keratin associated protein 2–3 (PC3-TxR cells; Low dose PIP): −3.3
expression change of Keratin associated protein 3–1 (PC3-TxR cells; Low dose PIP): −2.0
expression change of Metastasis associated lung adenocarcinoma transcript 1 (non-protein coding) (PC3-TxR cells; Low dose PIP): 3.0
expression change of O-linked N-acetylglucosamine (GlcNAc) transferase (PC3-TxR cells; Low dose PIP): 2.0
expression change of Sodium channel, non-voltage-gated 1, gamma subunit (PC3-TxR cells; Low dose PIP): 2.5
expression change of TCDD-inducible poly(ADP-ribose) polymerase (PC3-TxR cells; Low dose PIP): −2.8
expression change of Thrombospondin 1 (PC3-TxR cells; Low dose PIP): −2.2
IC50 at 60 min [1]: 37.3 µM
intracellular DTX concentration in PC3-TxR cells (P-gp): increased to a level similar to that in the positive control
LD50 [2]: 514 mg/kg
IC50 (Caco-2 monolayer model; read-out: IC50 of inhibition of the transport of cyclosporine A): 74.1 µM
IC50 (Caco-2 monolayer model; read-out: IC50 of inhibition of the transport of digoxin): 15.5 µM
enhancement of the sensitivity to doxorubicin (A-549/DDP): 14 folds
